Measured values as given in US20230257396A1, “MACROCYCLES AND THEIR USE” (BLOSSOMHILL THERAPEUTICS, INC., priority 2020, published 2023).

Experiments:
Experiment in all cases: KINOMEscan kinase binding assay (Eurofins/DiscoveRx), % Ctrl
[1] = molecular target: T1, kinases (Homo sapiens, UniProt P00519, T315I)
T1 construct: purchased Eurofins/DiscoveRx; host or cells: E. coli BL21-derived host (T7 phage display) for most kinases; HEK-293 for the rest
In short: (§1)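 Competition binding: DNA- or phage-tagged kinases (T7 phage in E. coli BL21, or HEK-293-expressed) with immobilized biotinylated ligand beads and test compound, 1 h at room temperature. Bead-bound kinase eluted and quantified by qPCR; % Ctrl = (compound − positive control)/(negative control − positive control) ×100 at a single compound concentration.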

[2] = molecular target: T2, kinases (Homo sapiens, UniProt P10721, T670I/V559D)
T2 construct: purchased Eurofins/DiscoveRx; host or cells: E. coli BL21-derived host (T7 phage display) for most kinases; HEK-293 for the rest
T2 sequence (P10721 26-976 V559D/T670I): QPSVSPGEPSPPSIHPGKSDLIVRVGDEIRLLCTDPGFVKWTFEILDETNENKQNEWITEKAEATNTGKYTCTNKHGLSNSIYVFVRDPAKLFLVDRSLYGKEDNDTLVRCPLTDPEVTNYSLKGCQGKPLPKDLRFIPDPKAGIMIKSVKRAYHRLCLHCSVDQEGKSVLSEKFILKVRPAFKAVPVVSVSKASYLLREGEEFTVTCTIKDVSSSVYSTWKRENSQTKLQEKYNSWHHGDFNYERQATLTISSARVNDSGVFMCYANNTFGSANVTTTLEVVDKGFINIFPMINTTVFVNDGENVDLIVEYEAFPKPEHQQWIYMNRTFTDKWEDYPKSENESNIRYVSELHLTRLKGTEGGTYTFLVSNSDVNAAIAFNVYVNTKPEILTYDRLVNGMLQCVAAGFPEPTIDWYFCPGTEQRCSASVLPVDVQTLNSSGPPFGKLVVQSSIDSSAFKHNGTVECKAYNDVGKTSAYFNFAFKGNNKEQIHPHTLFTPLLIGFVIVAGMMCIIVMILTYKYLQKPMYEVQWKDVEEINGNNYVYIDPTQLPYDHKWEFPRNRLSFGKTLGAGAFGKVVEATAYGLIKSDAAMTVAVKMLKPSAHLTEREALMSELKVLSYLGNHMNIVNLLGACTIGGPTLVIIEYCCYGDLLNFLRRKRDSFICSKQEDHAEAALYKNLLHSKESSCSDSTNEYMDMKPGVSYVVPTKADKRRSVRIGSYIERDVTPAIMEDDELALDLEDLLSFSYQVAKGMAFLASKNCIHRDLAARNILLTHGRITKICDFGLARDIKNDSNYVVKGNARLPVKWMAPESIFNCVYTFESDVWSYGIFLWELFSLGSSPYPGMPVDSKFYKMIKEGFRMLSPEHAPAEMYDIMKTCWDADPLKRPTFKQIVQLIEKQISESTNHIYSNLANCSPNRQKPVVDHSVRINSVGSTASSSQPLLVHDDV
In short: as §1

[3] = molecular target: T3, kinases (Homo sapiens, UniProt P36888, K663Q)
T3 construct: purchased Eurofins/DiscoveRx; host or cells: E. coli BL21-derived host (T7 phage display) for most kinases; HEK-293 for the rest
T3 sequence (P36888 27-993 K663Q): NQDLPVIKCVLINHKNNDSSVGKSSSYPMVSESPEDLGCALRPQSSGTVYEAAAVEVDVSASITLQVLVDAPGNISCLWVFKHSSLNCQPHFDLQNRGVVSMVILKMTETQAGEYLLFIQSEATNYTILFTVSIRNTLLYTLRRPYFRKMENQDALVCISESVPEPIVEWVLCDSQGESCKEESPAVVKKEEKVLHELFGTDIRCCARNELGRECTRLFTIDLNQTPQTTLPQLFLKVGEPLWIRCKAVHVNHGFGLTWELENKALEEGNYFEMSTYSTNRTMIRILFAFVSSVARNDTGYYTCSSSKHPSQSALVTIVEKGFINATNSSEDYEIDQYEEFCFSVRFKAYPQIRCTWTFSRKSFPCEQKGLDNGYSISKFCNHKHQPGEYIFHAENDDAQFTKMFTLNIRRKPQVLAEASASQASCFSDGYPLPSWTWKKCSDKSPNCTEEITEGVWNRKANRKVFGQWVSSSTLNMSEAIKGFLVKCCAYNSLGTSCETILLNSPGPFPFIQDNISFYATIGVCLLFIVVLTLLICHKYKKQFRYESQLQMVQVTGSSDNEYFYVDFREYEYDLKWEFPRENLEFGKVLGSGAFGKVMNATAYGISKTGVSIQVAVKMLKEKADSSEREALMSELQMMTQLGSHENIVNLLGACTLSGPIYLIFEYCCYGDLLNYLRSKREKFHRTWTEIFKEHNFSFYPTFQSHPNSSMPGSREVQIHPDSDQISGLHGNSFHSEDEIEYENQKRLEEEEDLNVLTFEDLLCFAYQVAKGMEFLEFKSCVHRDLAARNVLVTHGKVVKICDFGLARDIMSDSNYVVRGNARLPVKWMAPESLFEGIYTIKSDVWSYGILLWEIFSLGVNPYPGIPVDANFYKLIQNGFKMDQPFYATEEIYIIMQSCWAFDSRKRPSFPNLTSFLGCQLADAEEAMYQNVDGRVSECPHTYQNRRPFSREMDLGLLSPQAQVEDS
In short: as §1

[4] = molecular target: T4, kinases (Homo sapiens, UniProt P16234)
T4 construct: purchased Eurofins/DiscoveRx; host or cells: E. coli BL21-derived host (T7 phage display) for most kinases; HEK-293 for the rest
T4 sequence (P16234 24-1089): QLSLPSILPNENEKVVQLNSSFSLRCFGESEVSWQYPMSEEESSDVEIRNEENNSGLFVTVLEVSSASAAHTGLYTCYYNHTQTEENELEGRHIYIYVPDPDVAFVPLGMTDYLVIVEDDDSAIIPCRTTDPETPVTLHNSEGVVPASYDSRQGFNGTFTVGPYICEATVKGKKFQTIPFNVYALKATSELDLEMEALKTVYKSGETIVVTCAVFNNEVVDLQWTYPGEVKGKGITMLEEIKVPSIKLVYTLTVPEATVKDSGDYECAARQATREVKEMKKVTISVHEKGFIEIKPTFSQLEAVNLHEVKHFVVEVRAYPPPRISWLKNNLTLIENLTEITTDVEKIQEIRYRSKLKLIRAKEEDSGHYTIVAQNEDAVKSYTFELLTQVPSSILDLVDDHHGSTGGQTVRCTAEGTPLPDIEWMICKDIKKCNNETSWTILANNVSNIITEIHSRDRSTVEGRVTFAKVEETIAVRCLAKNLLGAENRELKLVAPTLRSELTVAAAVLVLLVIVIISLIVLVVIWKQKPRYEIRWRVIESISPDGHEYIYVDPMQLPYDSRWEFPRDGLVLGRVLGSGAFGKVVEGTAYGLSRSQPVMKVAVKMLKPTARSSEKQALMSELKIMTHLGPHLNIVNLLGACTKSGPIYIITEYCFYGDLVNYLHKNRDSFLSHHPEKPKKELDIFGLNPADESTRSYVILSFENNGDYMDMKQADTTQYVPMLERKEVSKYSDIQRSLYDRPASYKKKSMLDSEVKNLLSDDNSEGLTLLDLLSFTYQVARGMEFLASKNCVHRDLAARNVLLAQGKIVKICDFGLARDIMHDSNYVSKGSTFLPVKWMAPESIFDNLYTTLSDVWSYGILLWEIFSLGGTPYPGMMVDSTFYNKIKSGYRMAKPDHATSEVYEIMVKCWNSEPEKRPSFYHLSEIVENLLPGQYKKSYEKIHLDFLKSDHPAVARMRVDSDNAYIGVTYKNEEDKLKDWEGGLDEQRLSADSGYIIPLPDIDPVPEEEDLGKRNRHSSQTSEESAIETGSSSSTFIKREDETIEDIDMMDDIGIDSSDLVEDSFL
In short: as §1

[5] = molecular target: T5, kinases (Homo sapiens, UniProt P00533, G719S)
T5 construct: purchased Eurofins/DiscoveRx; host or cells: E. coli BL21-derived host (T7 phage display) for most kinases; HEK-293 for the rest
In short: as §1

[6] = molecular target: T6, kinases (Homo sapiens, UniProt P42684)
T6 construct: purchased Eurofins/DiscoveRx; host or cells: E. coli BL21-derived host (T7 phage display) for most kinases; HEK-293 for the rest
T6 sequence (P42684 whole entry): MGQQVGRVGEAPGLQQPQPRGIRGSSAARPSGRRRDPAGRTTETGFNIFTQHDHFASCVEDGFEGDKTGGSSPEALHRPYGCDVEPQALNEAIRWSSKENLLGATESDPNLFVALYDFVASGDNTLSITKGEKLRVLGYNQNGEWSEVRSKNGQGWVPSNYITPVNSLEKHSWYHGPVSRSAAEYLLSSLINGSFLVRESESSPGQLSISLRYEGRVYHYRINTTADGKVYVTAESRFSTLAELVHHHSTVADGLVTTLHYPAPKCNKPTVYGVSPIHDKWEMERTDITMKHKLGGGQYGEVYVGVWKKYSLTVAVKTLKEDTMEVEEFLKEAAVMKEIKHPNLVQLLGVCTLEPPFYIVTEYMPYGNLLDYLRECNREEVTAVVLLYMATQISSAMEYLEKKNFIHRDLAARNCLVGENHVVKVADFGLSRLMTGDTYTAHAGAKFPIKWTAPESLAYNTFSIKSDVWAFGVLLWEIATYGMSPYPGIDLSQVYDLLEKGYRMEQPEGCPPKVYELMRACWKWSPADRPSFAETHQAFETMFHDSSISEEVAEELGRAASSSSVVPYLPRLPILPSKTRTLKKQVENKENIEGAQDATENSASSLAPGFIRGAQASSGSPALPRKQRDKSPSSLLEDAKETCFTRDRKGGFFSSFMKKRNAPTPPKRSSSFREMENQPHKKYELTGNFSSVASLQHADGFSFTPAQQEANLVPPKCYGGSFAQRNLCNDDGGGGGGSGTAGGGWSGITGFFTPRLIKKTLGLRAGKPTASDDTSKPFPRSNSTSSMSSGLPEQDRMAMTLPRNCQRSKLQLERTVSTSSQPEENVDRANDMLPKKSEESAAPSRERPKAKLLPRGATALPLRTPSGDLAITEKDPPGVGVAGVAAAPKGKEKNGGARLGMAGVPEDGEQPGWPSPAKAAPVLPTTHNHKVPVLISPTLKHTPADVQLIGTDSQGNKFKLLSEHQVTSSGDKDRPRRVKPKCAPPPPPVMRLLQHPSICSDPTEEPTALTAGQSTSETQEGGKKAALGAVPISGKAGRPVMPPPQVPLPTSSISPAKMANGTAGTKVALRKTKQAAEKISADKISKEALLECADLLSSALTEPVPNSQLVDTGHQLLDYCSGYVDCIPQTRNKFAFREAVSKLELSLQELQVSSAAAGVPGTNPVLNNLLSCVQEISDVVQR
In short: as §1

[7] = 1 μM; ABL1(T315I)-nonphosphorylated
[8] = 1 μM; ABL1(T315I)-phosphorylated
[9] = target ABL1(T315I)-nonphosphorylated; 1 μM
[10] = target ABL1(T315I)-phosphorylated; 1 μM

| SMILES | % Ctrl, ABL1(T315I)-nonphosphorylated [1, 7] | % Ctrl, ABL1(T315I)-phosphorylated [1, 8] | % Ctrl, KIT(V559D, T670I) ([2]; 1 μM; KIT(V559D, T670I)) | % Ctrl, FLT3(K663Q) ([3]; 1 μM; FLT3(K663Q)) | % Ctrl, PDGFRA ([4]; 1 μM; PDGFRA) | % Ctrl, EGFR(G719S) ([5]; 1 μM; EGFR(G719S)) | % Ctrl, ABL2 ([6]; 1 μM; ABL2) | other results |
| --- | --- | --- | --- | --- | --- | --- | --- | --- |
| Cc1cc2c([nH]1)/C=C1\C(=O)Nc3cnc(cc31)-c1cnn(C)c1COCCNC2=O [Ex.123, [3a(4)Z]-6,14-dimethyl-10,11,13,14-tetrahydro-2H-17,1-(azenometheno)pyrazolo[4,3-m]dipyrrolo[3,2-f:3′,4′-i][1,4]oxazacyclopentadecine-3,8(5H,9H)-dione] | 100 % Ctrl | 100 % Ctrl | 97 % Ctrl | 77 % Ctrl | 100 % Ctrl | 94 % Ctrl | 100 % Ctrl |  |
| Cc1cc2c([nH]1)/C=C1\C(=O)Nc3cnc(cc31)-c1cn[nH]c1CNCCN(C)C2=O [Ex. 55, [3a(4)Z]-6,9-dimethyl-9,10,11,12,13,14-hexahydro-17,1-(azenometheno)pyrazolo[4,3-m]dipyrrolo[3,2-f:3′,4′-i][1,4]diazacyclopentadecine-3,8(2,5H)-dione] |  |  |  |  |  |  |  | % Ctrl, ABL1(T315I)-nonphosphorylated [1, 9]: 1.6 % Ctrl; % Ctrl, ABL1(T315I)-phosphorylated [1, 10]: 2.6 % Ctrl; % Ctrl, KIT(V559D, T670I) ([2]; target KIT(V559D, T670I); 1 μM): 50 % Ctrl; % Ctrl, FLT3(K663Q) ([3]; target FLT3(K663Q); 1 μM): 1.2 % Ctrl; % Ctrl, PDGFRA ([4]; target PDGFRA; 1 μM): 50 % Ctrl; % Ctrl, EGFR(G719S) ([5]; target EGFR(G719S); 1 μM): 67 % Ctrl; % Ctrl, ABL2 ([6]; target ABL2; 1 μM): 58 % Ctrl |
| Cc1cc2c([nH]1)/C=C1\C(=O)Nc3ccc(cc31)OCCOCCNC2=O [Ex. 129, [16a(17)Z]-2-methyl-6,7,9,10-tetrahydro-1H-12,14-(ethanediylidene)dipyrrolo[3,2-i:3′,4′-l][1,4,7]dioxazacyclopentadecine-4,16(5H,15H)-dione] | 92 % Ctrl | 91 % Ctrl | 100 % Ctrl | 100 % Ctrl | 100 % Ctrl | 97 % Ctrl | 96 % Ctrl |  |
| Cc1cc2c([nH]1)/C=C1\C(=O)Nc3ccc(cc31)OCCOCCN(C)C2=O [Ex.91, [16a(17)Z]-2,5-dimethyl-6,7,9,10-tetrahydro-1H-12,14-(ethanediylidene)dipyrrolo[3,2-i:3′,4′-l][1,4,7]dioxazacyclopentadecine-4,16(5H,15H)-dione] | 4.5 % Ctrl | 5.8 % Ctrl | 34 % Ctrl | 63 % Ctrl | 52 % Ctrl | 87 % Ctrl | 32 % Ctrl |  |
| CNC(=O)[C@H]1CN(C)C(=O)c2cc(C)[nH]c2/C=C2\C(=O)Nc3cc(Cl)c(cc32)OCCO1 [Ex. 135, [7R,16a(17)Z]-19-chloro-N,2,5-trimethyl-4,16-dioxo-4,5,6,7,9,10,15,16-octahydro-1H-12,14-(ethanediylidene)dipyrrolo[3,2-i:3′,4′-l][1,4,7]dioxazacyclopentadecine-7-carboxamide] | 94 % Ctrl | 72 % Ctrl | 6.3 % Ctrl | 66 % Ctrl | 79 % Ctrl | 92 % Ctrl | 85 % Ctrl |  |
| CN1CCOc2cc3c(cc2Cl)NC(=O)/C3=C\c2[nH]ccc2C(=O)N(C)CC1 [Ex. 164, [16a(17)Z]-19-chloro-2,5,8-trimethyl-5,6,7,8,9,10-hexahydro-12,14-(ethanediylidene)dipyrrolo[3,2-i:3′,4′-l][1,4,7]oxadiazacyclopentadecine-4,16(1H,15H)-dione] |  |  |  |  |  |  |  | % Ctrl, ABL1(T315I)-nonphosphorylated ([1]; 1 μM; target ABL1(T315I)-nonphosphorylated): 0.6 % Ctrl; % Ctrl, ABL1(T315I)-phosphorylated ([1]; 1 μM; target ABL1(T315I)-phosphorylated): 1.4 % Ctrl; % Ctrl, KIT(V559D, T670I) ([2]; 1 μM; target KIT(V559D, T670I)): 2.4 % Ctrl; % Ctrl, FLT3(K663Q) ([3]; 1 μM; target FLT3(K663Q)): 1.4 % Ctrl; % Ctrl, PDGFRA ([4]; 1 μM; target PDGFRA): 30 % Ctrl; % Ctrl, EGFR(G719S) ([5]; 1 μM; target EGFR(G719S)): 74 % Ctrl; % Ctrl, ABL2 ([6]; 1 μM; target ABL2): 2.3 % Ctrl |
| Cc1cc2c([nH]1)/C=C1\C(=O)Nc3ccc(cc31)-c1ccnn1CCOCCN(C)C2=O [Ex. 41, [19a(20)Z]-2,5-dimethyl-6,7,9,10-tetrahydro-1H-15,17-(ethanediylidene)pyrazolo[1,5-d]dipyrrolo[3,4-h:2′,3′-k][1,4,14]oxadiazacyclohexadecine-4,19(5H,18H)-dione] | 16 % Ctrl | 19 % Ctrl | 30 % Ctrl | 17 % Ctrl | 19 % Ctrl | 86 % Ctrl | 77 % Ctrl |  |
| Cc1cc2c([nH]1)/C=C1\C(=O)Nc3ccc(cc31)-c1c(noc1C)COCCN(C)C2=O [Ex. 128, [3a(4)Z]-6,9,16-trimethyl-1,11-dihydro-2H,13H-1,17-(ethanediylidene)[1,4]oxazolo[4,3-m]dipyrrolo[3,2-f:3′,4′-i][1,4]oxazacyclopentadecine-3,8(5H,9H)-dione] | 20 % Ctrl | 4.2 % Ctrl | 71 % Ctrl | 77 % Ctrl | 89 % Ctrl | 97 % Ctrl | 91 % Ctrl |  |
| Cc1cc2c([nH]1)/C=C1\C(=O)Nc3ccc(cc31)-c1c(noc1C)CNCCN(C)C2=O [Ex. 139, [3a(4)Z]-6,9,16-trimethyl-10,11,12,13-tetrahydro-2H-1,17-(ethanediylidene)[1,2]oxazolo[4,3-m]dipyrrolo[3,2-f:3′,4′-i][1,4]diazacyclopentadecine-3,8(5H,9H)-dione] |  |  |  |  |  |  |  | % Ctrl, ABL1(T315I)-nonphosphorylated [1, 9]: 0.1 % Ctrl; % Ctrl, ABL1(T315I)-phosphorylated [1, 10]: 3 % Ctrl; % Ctrl, KIT(V559D, T670I) ([2]; target KIT(V559D, T670I); 1 μM): 69 % Ctrl; % Ctrl, FLT3(K663Q) ([3]; target FLT3(K663Q); 1 μM): 44 % Ctrl; % Ctrl, PDGFRA ([4]; target PDGFRA; 1 μM): 74 % Ctrl; % Ctrl, EGFR(G719S) ([5]; target EGFR(G719S); 1 μM): 84 % Ctrl; % Ctrl, ABL2 ([6]; target ABL2; 1 μM): 70 % Ctrl |
| Cc1cc2c([nH]1)/C=C1\C(=O)Nc3ccc(cc31)CN(C)C(=O)COCCNC2=O [Ex.111, [17a(18)Z]-2,11-dimethyl-6,7,11,12-tetrahydro-1H-13,15-(ethanediylidene)dipyrrolo[3,2-f:3′,4′-i][1,4,14]oxadiazacyclohexadecine-4,10,17(5H,9H,16H)-trione] | 90 % Ctrl | 64 % Ctrl | 96 % Ctrl | 44 % Ctrl | 95 % Ctrl | 77 % Ctrl | 100 % Ctrl |  |
